PubChem BioAssay (NCI)
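Interpolation was linear, between the two tested concentrations surrounding the appropriate level; five concentrations were tested over 48 hours in 96-well plates. GI50 marks 50% less growth. TGI marks complete inhibition of growth.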

What was measured:
Assay in all cases: NCI anticancer screen, dose series, 48 h
TK-10 renal = tested on: TK-10 renal
BT-549 breast = tested on: BT-549 breast
CAKI-1 renal = tested on: CAKI-1 renal
SF-268 CNS = tested on: SF-268 CNS
MALME-3M melanoma = tested on: MALME-3M melanoma
DU-145 prostate = tested on: DU-145 prostate
UACC-62 melanoma = tested on: UACC-62 melanoma
MDA-MB-231 breast = tested on: MDA-MB-231 breast

Row | SMILES | TGI (TK-10 renal) [µM] | TGI (BT-549 breast) [µM] | TGI (CAKI-1 renal) [µM] | TGI (SF-268 CNS) [µM] | TGI (MALME-3M melanoma) [µM] | TGI (DU-145 prostate) [µM] | TGI (UACC-62 melanoma) [µM] | TGI (MDA-MB-231 breast) [µM] | GI50 (TK-10 renal) [µM] | GI50 (BT-549 breast) [µM] | GI50 (CAKI-1 renal) [nM] | GI50 (SF-268 CNS) [µM] | GI50 (MALME-3M melanoma) [µM] | GI50 (DU-145 prostate) [µM] | GI50 (UACC-62 melanoma) [µM] | GI50 (MDA-MB-231 breast) [µM]
1 | CN(C)CCCN1c2ccc(O)cc2Sc2ccc(Cl)cc21 | 24.9 | 25.2 | 16 | 21 | 24 | 31.8 | 21.8 | 23.6 |  |  |  |  |  |  |  | 
2 | C=C1[C@@H](O)C[C@H]2C(C)(C)C[C@H](Cl)C[C@]2(C)[C@H]1C[C@H](O)[C@H]1CC(=O)NC1=O | 0.151 | 0.155 | 1.59 | 0.526 | 0.0632 | 0.165 | 0.15 | 0.19 | 0.0253 | 0.0265 | 41.8 | 0.0179 | < 0.01 | 0.0166 | 0.0194 | 0.015
3 | CNC12C3C4C1C1C2C3C41C(=O)N[C@H](C(=O)N(C)[C@H](C[C@@H](OC(C)=O)c1nc(C(=O)N[C@@H](Cc2ccccc2)C[C@H](C)C(=O)OC)cs1)C(C)C)C1CC1 (stereo not given in full) | > 15 | 0.745 | > 15 | > 10.6 | > 15 | > 3.68 | 2.98 | 3.33 | 0.562 | 0.123 | 2730 | 0.354 | 0.504 | 0.317 | 0.0921 | 0.402
4 | CC(=O)Oc1ccccc1C(=O)NCCC[Se]C#N | 3.82 |  | 3.94 | 4.06 | 3.62 | 3.17 |  |  | 1.83 |  | 1970 | 1.84 | 1.72 | 1.72 |  | 
5 | CCOC(=O)Nc1ccc(C(=O)/C=C/c2ccccc2)cc1 | 86.5 | 67.8 | > 100 | 69 | > 100 | 85.1 | > 100 | > 100 | 28.9 | 26.5 | 79000 | 23.8 | 77.4 | 22.8 | 20.1 | 33.4
6 | COC(=O)C1=CO[C@@H](OC2OC(CO)C(O)C(O)C2O)[C@@H]2[C@H](C)[C@@H](O)[C@@H](O)[C@]12O (stereo not given in full) | > 100 | > 100 | > 100 | > 100 | > 100 | > 100 | > 100 | > 100 |  |  |  |  |  |  |  | 
7 | O=C1Nc2ccc(CN3CCOC3=O)cc2/C1=C/c1cc(CN2CCOCC2)c[nH]1 | > 100 | > 79.5 | > 100 | > 100 | > 100 | > 100 | > 100 | > 100 | 65.5 | 23.5 | 26300 | > 86.5 | > 71.5 | > 100 | 34.4 | 78.8
8 | Cc1ccc(S(=O)(=O)NNC(C[N+](=O)[O-])c2ccccc2)cc1 (stereo not given) | 58.8 | 34.3 | 47.7 | 35.7 | 71.3 | > 100 | 85.3 | 81.3 |  |  |  |  |  |  |  | 
9 | CNC(C)[C@H]1CCC2C3CCC4C[C@@H](N(C)C(=O)c5ccccc5)CC[C@]4(C)C3CC[C@@]21C (stereo not given in full) | 7.83 | 8.35 | 5.13 | 3.21 | 3.99 | 16.6 | 2.64 | 3.87 | 2.16 | 2.26 | 1540 | 1.16 | 1.6 | 3.46 | 1.02 | 1.6
10 | CCCC(=O)O[C@]1(C)CC[C@@H]2[C@H]3[C@@H]1[C@@H]1C/C(C)=C\CC[C@](C)(OC(=O)[C@@H]2C)[C@H]3O1 | > 100 | > 100 | > 100 | > 100 | > 100 | > 100 | > 100 | 94.4 | 86.9 | 61.9 | 31700 | 47.8 | 61.1 | 74.5 | 24.4 | 25.5
11 | CCOc1ccc(NC(=O)c2cc3ccccc3cc2O)cc1 | > 100 | > 100 | > 100 | > 100 | > 100 | > 100 | > 100 | > 100 | 74.8 | 42 | > 100000 | 64.8 | 39.7 | > 100 | 57.4 | 53.8
12 | O=C1C(CO)=C[C@@H](O)[C@H]2O[C@@H]12 |  | > 100 | > 100 | > 100 | > 100 | > 100 | > 100 | > 100 |  |  |  |  |  |  |  | 
13 | O=C(Nc1nc(-c2ccccc2)cs1)c1cc(O)c(O)c(O)c1 | 59.4 | 31.4 | 16.6 | 31.9 | 71.1 | > 100 | 16.5 | 24.4 | 3.62 | 3.46 | 1420 | 2.72 | 8.86 | 6.41 | 3.02 | 1.58
14 | CCCC(CCC)Oc1ccc(CCCC2=C(O)c3ccccc3C(=O)C2=O)cc1 | 21.3 | 20.9 | 8.66 | 18.9 | 23.5 | 19 | 17 | 28.9 | 8.03 | 8.74 | 2460 | 5.22 | 7.53 | 6.71 | 3.16 | 12.3
15 | Nc1cc(N)cc(Cc2ccccc2)c1 | > 100 | > 100 | > 100 | > 100 | > 100 | > 100 |  | > 100 |  |  |  |  |  |  |  | 
16 | OCC#CCCCCOCC#Cc1ccccc1C#CCOCCCCC#CCO | 41.6 | 41.2 | 64.8 | > 100 |  | 41.3 | 34.3 | 38.3 | 11.9 | 16.8 | 27200 | 37.4 |  | 17.6 | 18.4 | 16.1
17 | COc1ccccc1Nc1nc2ccccc2c2occc12 | > 50 | 32.1 | > 50 | > 50 |  | > 50 | 26.4 | 29.1 | 18.8 | 15.3 | 18000 | 12.3 |  | 16.9 | 10.1 | 10.9

Row | SMILES | TGI (TK-10 renal) [µM] | TGI (BT-549 breast) [µM] | TGI (CAKI-1 renal) [µM] | TGI (SF-268 CNS) [µM] | TGI (MALME-3M melanoma) [µM] | TGI (DU-145 prostate) [µM] | TGI (UACC-62 melanoma) [µM] | TGI (MDA-MB-231 breast) [µM] | GI50 (TK-10 renal) [µM] | GI50 (BT-549 breast) [µM] | GI50 (CAKI-1 renal) [nM] | GI50 (SF-268 CNS) [µM] | GI50 (MALME-3M melanoma) [µM] | GI50 (DU-145 prostate) [µM] | GI50 (UACC-62 melanoma) [µM] | GI50 (MDA-MB-231 breast) [µM]
18 | C[C@@H]1CC[C@@H]2[C@@H]1[C@H](OC(=O)c1ccc3ccccc3c1)[C@]1(C3CCCCC3)C[C@@H](OC(=O)CO)[C@@]2(C)O1 | 31.1 | 1.56 | 10.9 | 19.5 | 32.3 | 25.9 | 28.5 | 29.3 | 14.5 | 0.0714 | 39.1 | 0.542 | 16.5 | 12.2 | 14.3 | 13.6
19 | CC(=O)[O][Hg][CH2]C1(C)COC(C)([CH2][Hg][O]C(C)=O)CO1 (stereo not given) | 6.2 | 3.64 | 2.42 | 9.17 | 9.23 | 23.1 | 9.26 | 29.2 | 2.29 | 1.76 | 805 | 4.73 | 4.66 | 10.4 | 4.94 | 12.5
20 | O=C([CH-]C(=O)c1ccccc1)c1ccccc1.[CH3-].[CH3-].[CH3-].[Sn+4] | 84.9 |  | > 100 | 81.3 | 29.6 |  | 65.8 |  | 31.7 |  | 13600 | 12.9 | 10.7 |  | 12.2 | 
21 | CSC(=NC#N)S/C=C/C(=O)c1cccc2ccccc12 | 45.4 | 56 | 33.9 | > 100 | 38.6 | > 100 | > 100 | 75.4 | 22.2 | 20.1 | 14700 | 36.6 | 15.8 | 39.1 | 27.7 | 26.2
22 | COc1ccc(C2CC(c3cccc(OC)c3)=NN2C(=O)c2cc(OC)c(OC)c(OC)c2)cc1 (stereo not given) | > 100 | > 100 | > 100 | > 100 |  | > 41.6 | > 100 | > 100 |  | 2.05 | 1220 | 4.09 |  | 2.66 | 1.1 | 1.94
23 | COc1ccc(C2SCC(=O)N2NC(=O)C(O)c2ccccc2)cc1 (stereo not given) | > 100 | > 100 | > 100 | > 100 |  | > 100 | > 100 | > 100 | > 100 | > 100 | > 100000 | > 100 |  | > 100 | > 100 | > 100
24 | Cc1cc(S(=O)(=O)Nc2nc3ccccc3[nH]2)c(SCc2ccccc2)cc1Cl | > 100 | > 100 | 6.1 | > 100 |  | > 100 | > 100 | 51.5 | 38 | > 100 | 2100 | > 100 |  | > 100 | > 100 | 18.2
25 | COC(=O)[C@@H]1[C@H](O)[C@H](C)[C@H](O)[C@H](C)/C=C\C=C(C)C(=O)Nc2c(C)c(OC(C)=O)c3c(c2O)C(=O)C(C)=C2OCOC(=C23)C(C)=C[C@@](C)(O)[C@H](O)[C@@H](C)[C@H]1OC(C)=O |  | > 100 |  | > 100 | > 100 | > 100 |  | > 100 |  |  |  |  |  |  |  | 
26 | COC(=O)c1ccc(NC(N)=NCC(C)(C)COc2ccc(C(F)(F)F)cc2)nc1 | 3 |  |  |  | 3.48 | 3.2 | 3.1 | 3.39 | 1.57 |  |  |  | 1.72 | 1.7 | 1.66 | 1.7
27 | CN(N=O)C(=O)Nc1ccc(C(=O)O)cc1 | > 100 | > 100 | > 100 | > 100 |  | > 100 | > 100 | > 100 |  |  |  |  |  |  |  | 
28 | O=C(Nc1cc(C(F)(F)F)cc(C(F)(F)F)c1)Nc1ccc(OCc2nnc(-c3ccc(Cl)cc3)o2)c(F)c1 | 33.9 |  | 15.8 | 21 | 6.27 | 15.2 | 11.6 | 4.93 | 4.39 |  | 2720 | 4.08 | 2.3 | 3.58 | 1.79 | 1.99
29 | COc1cc2oc(-c3cccc(C(=O)Nc4ccc(C)cc4)c3)cc(=O)c2c(OC)c1OC | > 100 | 54.5 | 3.22 | > 100 |  | > 100 | 6.42 | 3.23 | 6.89 | 1.71 | 315 | 5.61 |  | 3.21 | 2.35 | 0.468
30 | NC(=NCCO)c1ccc(N2CCCN(c3ccc(C(N)=NCCO)cc3)CC2)cc1 | > 100 |  | > 100 |  | > 100 |  | > 100 | > 100 | > 100 |  | > 100000 |  | 72.9 |  | > 100 | > 100
31 | Clc1ccc(-c2nc(C(Cl)Cl)nc3cc(-c4ccccc4)nn23)cc1 | > 50 | > 50 |  | > 50 | > 50 | 2.02 |  | > 50 | 2.23 | > 50 |  | 1.7 | 2 | 0.516 |  | 1.8
32 | Cc1ccc(S(=O)(=O)N[C@@H](Cc2ccccc2)C(=O)CCl)cc1 | 41.7 | 24 | 34.7 | 43.6 | 40 | 26.1 |  |  | 19.4 | 6.64 | 16700 |  | 18.1 | 11.1 |  | 
33 | COc1cc2c(c(OC)c1OC)C(=O)c1c-2n(CCCN=[N+]=[N-])c(=O)c2cc([N+](=O)[O-])ccc12 | > 100 | > 100 | > 100 | > 100 |  | > 100 | > 100 | > 100 | > 100 | 27.3 | 60600 | 29.8 |  | > 100 | 39.7 | 35.8
34 | C=C(CN(C)Cc1ccccc1)c1ccc(C(=O)Nc2ccccc2N)cc1 | 17.8 | 10.1 | 14.8 | 16.8 |  | 11.9 | 18.4 | 5.78 | 7.12 | 1.48 | 3430 | 5.98 |  | 1.64 | 2.16 | 0.739
